Structures can show the parent of a compound that is named as a salt.
Legend:
Type in all cases: in vivo, mouse
MRL/Mp-lpr/lpr mice [1] = assay: Suppression of glomerulonephritis (Mac 2 number per glomerulus) by concomitant use of toremifene citrate with glucocorticoid; conditions: for change in Mac 2 number as compared with the control (in words): all dose groups, 9 weeks, t-test
Method: Twelve-week old female MRL/Mp-lpr/lpr mice were used in the examination. Thirty miligrams per kg or 15 mg/kg of toremifene citrate (TOR) was orally administered to each mouse twice a day for 9 weeks from the 12th week to the 21st week. A glucocorticoid (prednisolone), 8, 4 and 2 mg/kg/day, were subcutaneously administered to mice once a day as a positive control drug. The concomitant use of tremifene with the glucocorticoid was also carried out according to the same regimen as above. The kidney was taken out from each mouse the day after the completion of the whole administration period and fixed in a PLP fixative. Frozen sections were made from the fixed kidney and used for an immunostaining with an anti-Mac-2 monoclonal antibody (Hybritec Inc., San Diego, USA). The number of Mac-2 positive cells (activated macrophages) invading each of 10 to 20 glomeruli of the kidney, which is hereinafter referred to as Mac 2 number, was counted under a microscopy to determine an average Mac 2 number per glomerulus. The degree of severeness of glomerulonephritis was estimated in terms of the average Mac 2 number (n=13 for each group).

MRL/Mp-lpr/lpr mice [2] = assay: Inhibition of swelling of spleen and lymph node of MRL/Mp-lpr/lpr mice; conditions: 100 mg/kg orally once a day for 13 weeks
Method: (§1) Eight-week old female MRL/Mp-lpr/lpr mice (Clea Japan, Inc.) were used in this examination. Toremifene citrate (JP-B-4 19973) was suspended in carboxymethylcellulose to prepare a 0.5% suspension. This compound (100 mg/kg) was orally administered to each mouse once a day for 13 weeks.

MRL/Mp-lpr/lpr mice [3] = assay: Suppression of renal disorder (glomerulonephritis score, BUN) of MRL/Mp-lpr/lpr mice; conditions: 100 mg/kg orally once a day for 13 weeks
Method: as §1
An autopsy was performed on the mice of the control group and the toremifene citrate treated group after the completion of the administration to examine their kidneys pathohistologically. The blood urea nitrogen (BUN) of the serum in each group was examined to confirm changes in the renal function.
1) The kidney was fixed in 10% buffered formalin, and then paraffin sections thereof were prepared by an ordinary method to prepare HE and PAS stained specimens. The extent of the disorder of the renal glomeruli was scored and classified into the following groups:
2) The BUN was determined with a Fuji Dry Chem Analyzer.

MRL/Mp-lpr/lpr mice [4] = assay: Inhibition of sialadenitis, angitis and arthritis of MRL/Mp-lpr/lpr mice (histopathology); conditions: 100 mg/kg orally once a day for 13 weeks
Method: as §1
The salivary gland, renal blood vessel and knee joint of each mouse in the control group and the toremifene citrate treated group were histopathologically examined.
1) The salivary gland, kidney and knee joint were fixed in 10% buffered formalin, and then paraffin sections thereof were prepared by an ordinary method to prepare HE and PAS stained specimens. The extent of the disorder was scored and classified into the following groups: […]

[5] = test system: NZB×NZW mice (B/W F1 mice); assay: Comparison of survival time of NZB×NZW F1 mice; conditions: for animals alive after one year / animals died at/before the age of 40 weeks / animals still alive after almost two years' time: female mice; for animals alive after one year: female control 20%; for animals died at/before the age of 40 weeks: female control 50% died
Method: NZB×NZW mice (B/W F1 mice) were used as a pathological model of autoimmune diseases (systemic lupus erythematodes). Effect of toremifene citrate on the survival time of the animals was investigated.
F1-hybrids of NZB (female) and NZW (male) mice (B/W F1 mice): Imported from Bomholtgaard, Denmark at the age of five weeks.
Toremifene citrate 30 mg/kg/day: administration 70 mg/kg in polyethylene glycol solution 3 times a week per os to female NZB×NZW F1 mice
Toremifene citrate 3 mg/kg/day: administration 7 mg/kg in polyethylene glycol solution 3 times a week per os to female NZB×NZW F1 mice
All but two female control animals have died during the almost two years' follow-up time. Fifty percents of the animals in this group died before/at the age of 40 weeks, and 20% (4/20) were alive after one year.

[6] = 3 mg/kg/day (7 mg/kg 3 times a week per os)
[7] = 30 mg/kg/day (70 mg/kg 3 times a week per os)

For `C[C@]12C=CC(=O)C=C1CC[C@@H]1[C@@H]2[C@@H](O)C[C@@]2(C)[C@H]1CC[C@]2(O)C(=O)CO` [Prednisolone, prednisolone], the “change in Mac 2 number as compared with the control (in words)” value (MRL/Mp-lpr/lpr mice [1]) was “did not exhibit any significant decrease in Mac 2 number”, the “Mac 2 number” value (MRL/Mp-lpr/lpr mice [1]; prednisolone 2 mg/kg subcutaneously once a day for 9 weeks, first series, control 7.5 ± 1.5) was 9.4 ± 1.0 and the “Mac 2 number” value (MRL/Mp-lpr/lpr mice [1]; prednisolone 2 mg/kg subcutaneously once a day for 9 weeks, second series, control 11.3 ± 1.2) was 7.7 ± 1.0. The “Mac 2 number” value (MRL/Mp-lpr/lpr mice [1]; prednisolone 4 mg/kg subcutaneously once a day for 9 weeks, first series, control 7.5 ± 1.5) was 7.9 ± 0.7, the “Mac 2 number” value (MRL/Mp-lpr/lpr mice [1]; prednisolone 4 mg/kg subcutaneously once a day for 9 weeks, second series, control 11.3 ± 1.2) was 9.1 ± 1.4 and the “Mac 2 number” value (MRL/Mp-lpr/lpr mice [1]; prednisolone 8 mg/kg subcutaneously once a day for 9 weeks, first series, control 7.5 ± 1.5) was 5.8 ± 0.8.
`CN(C)CCOc1ccc(/C(=C(/CCCl)c2ccccc2)c2ccccc2)cc1` [Toremifene citrate, 2[4-(Z)-4-Chloro-1,2-Diphenyl-1-Butenyl]Phenoxy-N,N-Dimethylethylamine Citrate] was tested, and the “swelling of the spleen and lymph node (in words)” value (MRL/Mp-lpr/lpr mice [2]) was “inhibited the swelling of the spleen and lymph node”, the “swelling of spleen ([formula])” value (MRL/Mp-lpr/lpr mice [2]; 8-week old female mice, mean ± standard deviation, control 2.34 ± 0.74) was 1.38 ± 1.06 and the “swelling of lymph node ([formula])” value (MRL/Mp-lpr/lpr mice [2]; 8-week old female mice, mean ± standard deviation, control 6.77 ± 1.70) was 3.11 ± 1.43. For the same compound, the “glomerulonephritis (in words)” value (MRL/Mp-lpr/lpr mice [3]) was “ameliorated the glomerulonephritis”, the “renal function (in words)” value (MRL/Mp-lpr/lpr mice [3]) was “healed the renal function” and the “Glomerulonephritis (score 0-3, average of 25 renal glomeruli)” value (MRL/Mp-lpr/lpr mice [3]; mean ± standard deviation, control 2.4 ± 0.7) was 1.2 ± 0.7. The BUN (MRL/Mp-lpr/lpr mice [3]; serum, mean ± standard deviation, control 43.1 ± 23.9) was 24.6 ± 4.9 mg/dL, the “attack by sialadenitis, angitis and arthritis (in words)” value (MRL/Mp-lpr/lpr mice [4]) was “prevented the mice from being attacked by sialadenitis, angitis and arthritis” and the “Arthritis (score 0-3)” value (MRL/Mp-lpr/lpr mice [4]; knee joint, mean ± standard deviation, control 1.6 ± 0.9) was 0.4 ± 0.5. For the same compound, the “Angitis (score 0-3)” value (MRL/Mp-lpr/lpr mice [4]; renal blood vessel, mean ± standard deviation, control 2.1 ± 0.7) was 0.9 ± 0.8, the “Sialadenitis (score 0-3)” value (MRL/Mp-lpr/lpr mice [4]; salivary gland, mean ± standard deviation, control 2.2 ± 0.6) was 0.9 ± 0.8 and the “Mac 2 number” value (MRL/Mp-lpr/lpr mice [1]; TOR 15 mg/kg orally twice a day for 9 weeks, first series, control 7.5 ± 1.5) was 6.5 ± 1.2. The “Mac 2 number” value (MRL/Mp-lpr/lpr mice [1]; TOR 30 mg/kg orally twice a day for 9 weeks, first series, control 7.5 ± 1.5) was 6.2 ± 1.0, the “change in Mac 2 number as compared with the control (in words)” value (MRL/Mp-lpr/lpr mice [1]) was “did not exhibit any significant decrease in Mac 2 number” and the “animals alive after one year” value [5, 6] was 80%. For the same compound, the “animals died at/before the age of 40 weeks” value [5, 6] was 1/20, the “animals alive after one year” value [5, 7] was 85% and the “animals died at/before the age of 40 weeks” value [5, 7] was 3/20. For the same compound, the “life span compared to the female control animals (in words)” value ([5]; both treatment groups (3 and 30 mg/kg/day)) was “lengthened clearly”, the “animals still alive after almost two years' time” value ([5]; higher dosage group (30 mg/kg/day)) was 10% and the “animals still alive after almost two years' time” value ([5]; lower dosage group (3 mg/kg/day)) was 25%.
